# Key:
# Format in all cases: cell-based
# [1] = system: H1299 (NRAS Q61K mutant type); experiment: In vitro growth inhibition (GI50), H1299; conditions: Homo sapiens, NCI-H1299
# Excerpt: (§1) Tumor cell line is an effective cell model for studying the inhibition of tumor cell growth or proliferation in vitro. In the present invention, a representative tumor cell line was selected to determine the cell growth inhibition activity of the present compound. All cell lines used were from ATCC, DSMZ, and the Cell Bank of the Chinese Academy of Sciences. Cell culture conditions and methods were in accordance with the requirements of each cell line. Cells were subcultured in vitro for no more than 3 passages each time, and as required, single-clone purification and identification of cell lines could be carried out.
# (§2) The cell culture media used were RPMI1640 (Gibco), MEM (Gibco), McCOY'S5A (Gibco), and IMDM (Gibco). The complete medium was prepared by supplement with 5˜20% fetal calf serum (Gibco), 1% double-antibiotics (10000 units/mL penicillin and 10000 units/mL), 2 mM glutamine or 1 mM sodium pyruvate, respectively.
# Human large cell lung cancer cell NCI-H460 (KRAS […] mutant type, ATCC), human non-small cell lung cancer cell line H1299 (NRAS Q61K mutant type, ATCC), human melanoma cell line A375 (BRAF V600E mutant type, Shanghai Cell Bank of Chinese Academy of Sciences), human colon cancer cell line HCT116 (KRAS G13D mutant type, Shanghai Cell Bank, Chinese Academy of Sciences) were cultured in a complete medium of 1×RPMI1640 (10% FBS), respectively. Human non-small cell lung cancer cells A549 (KRAS G12S mutant type, Shanghai Cell Bank, Chinese Academy of Sciences) were cultured in a complete medium of 1× Ham's supplemented with 10% FBS, 1% double antibody, and 2 mM glutamine.
# (§3) Adherent cells were digested with 0.25% pancreatin-EDTA (Gibco). The suspension cells were collected by centrifugation. The supernatant was discarded and the cell pellet was resuspended and counted. Different cell concentrations (5˜10×10^4 cells/mL) were prepared according to the growth cycle of each cell line and then seeded on a 96-well plate (Corning), 100 μL/well. The cells were incubated overnight at 37° C., 5% CO2. The compounds were added to the cells on the second day with 2 wells in parallel. The final concentration of organic solvent shall not exceed 1%. The cells were continually incubated for 3 to 5 days, and then subjected to MTT assay.
# (§4) The compound of the present invention and the control compound were dissolved in DMSO (Sigma) respectively, with the purity of more than 98%. The compound was stored in a concentration of 10 mM at −20° C. and diluted to 2- or 10-fold series prior to use.
# (§5) Dojindo CCK8 reagent kit was used as MTT assay. THERMO […] FC meter was used as microplate reader.
# (§6) For adherent cells, culture medium was removed and immediately replaced with the fresh prepared medium which contains 10% CCK8 reagent (100 μL/well). For the suspension cells, CCK8 was directly added to 10% of the final concentration. The cells were continually incubated for 1˜4 h. When a dark yellow color could be observed in the solvent control wells, the absorbance value at OD450 nm was measured and the cell growth rate was calculated according to the following formula: Cell Growth Rate (%)=100*(T−T0)/(C−T0) T=optical density of drug treatment cell well—optical density of blank control well; T0=optical density of cell well before drug treatment—optical density of blank control well; C=optical density of cell well of solvent control group—optical density of blank control well. The concentration value of 50% inhibition of cell growth (GI50) was calculated according to the drug concentration and cell growth rate curve. The experiment was independently repeated 1˜3 times, and subject to biological statistical analysis. 4. Experimental Results
# Tumor cell growth inhibition test was performed by selecting representative compounds (compounds 4, 11, 12, 16, 27, 68, 71, 77, 79, 89 and 116 of the present invention). The initial concentration of the compound was 5,000 nM, then it was serially diluted by 2-fold or 10-fold to 0.01 nM. […]
# [2] = system: MKN-45 (c-MET amp); experiment: In vitro growth inhibition (GI50), MKN-45; conditions: Homo sapiens; MKN-45, cMET Amp+
# Excerpt: as §1, §2
# The human gastric cancer cell line MKN-45 (c-MET amp, ATCC) and the non-small cell lung cancer cell line NCI-H1993 (c-MET amp, ATCC) were cultured in complete medium comprising 1×RPMI1640 and 10% FBS, respectively.
# as §3, §4, §5, §6
# (§7) Tumor cell growth inhibition test was performed by selecting representative compounds (compounds 4, 11, 12, 16, 27, 68, 71, 77, 79, 89 and 116 of the present invention). The initial concentration of the compound was 5,000 nM, then it was serially diluted by 2-fold or 10-fold to 0.01 nM. The GI50 value of each test compound was calculated according to the GI50 assay and calculation method. The experiments were repeated 1 to 3 times, and data were subjected to biological statistical analysis.
# [3] = system: NCI-H2228 (expressing EML4-ALK fusion gene); experiment: In vitro growth inhibition (GI50), NCI-H2228; conditions: Homo sapiens
# Excerpt: as §1, §2
# Human non-small cell lung cancer cell line NCI-H2228 (expressing EML4-ALK fusion gene, ATCC) and human anaplastic large cell lymphoma cell line Karpas-299 (expressing NPM-ALK fusion gene, ATCC) were cultured in complete medium comprising 1×RPMI1640 (10% FBS), respectively. Neuroblastoma cell line SH-SY5Y (expressing ALK F1174L mutant protein, Shanghai Cell Bank, Chinese Academy of Sciences) was cultured in MEM complete medium (1×MEM, 10% FBS, 1% NEAA, 1 mM sodium pyruvate).
# as §3, §4, §5, §6, §7
SMILES,GI50 [1] [µM],GI50 [2] [µM],GI50 [3] [µM]
"CC(C)(C)c1cc(NC(=O)Nc2ccc(-n3cnc4cc(O)ccc43)cc2)no1 [Compound 4, 1-(5-tert-butyl-isoxazol-3-yl)-3-[4-(5-hydroxy-benzimidazol-1-yl)-phenyl]-urea]",> 2.5,> 2.5,> 2.5
"CC(C)(C)c1cc(NC(=O)Nc2ccc(-n3cnc4cc(OCCO)ccc43)cc2)no1 [Compound 11, 1-(5-tert-butyl-isoxazol-3-yl)-3-{4-[5-(2-hydroxy-ethoxyl)-benzimidazol-1-yl]-phenyl]-urea]",> 2.5,> 2.5,> 2.5
"CC(C)(C)c1cc(NC(=O)Nc2ccc(-n3cnc4cc(OCCN5CCOCC5)ccc43)cc2)no1 [Compound 16, 1-(5-tert-butyl-isoxazol-3-yl)-3-{4-[5-(2-morpholin-4-yl-ethoxyl)-benzimidazol-1-yl]-phenyl}-urea]",> 2.5,> 2.5,> 2.5
"CC(C)(C)c1cc(NC(=O)Nc2ccc(-n3cnc4ccc(OCCN5CCOCC5)cc43)cc2)no1 [Compound 27, 1-(5-tert-butyl-isoxazol-3-yl)-3-{4-[6-(2morpholin-4-yl-ethoxyl)-benzimidazol-1-yl]-phenyl}-urea]",> 2.5,> 2.5,> 2.5
"COCCOc1ccc2c(c1)ncn2-c1ccc(NC(=O)Nc2cc(C(C)(C)C)n[nH]2)cc1 [Compound 77, 1-(5-tert-butyl-2H-pyrazol-3-yl)-3-{4-[5-(2-methoxyl-ethoxyl)-benzimidazol-1-yl]-phenyl}-urea]",> 2.5,> 2.5,> 2.5

# Continued, values first:
GI50 [1] [µM],GI50 [2] [µM],GI50 [3] [µM],SMILES
> 2.5,> 2.5,> 2.5,"CC(C)(C)c1cc(NC(=O)Nc2ccc(-n3cnc4ccccc43)cc2)[nH]n1 [Compound 68, 1-(4-benzimidazol-1-yl-phenyl)-3-(5-tert-butyl-2H-pyrazol-3-yl)-urea]"
> 2.5,> 2.5,> 2.5,"COc1ccc2c(c1)ncn2-c1ccc(NC(=O)Nc2cc(C(C)(C)C)n[nH]2)cc1 [Compound 71, 1-(5-tert-butyl-2H-pyrazol-3-yl)-3-[4-(5-methoxyl-benzimidazol-1-yl)-phenyl]-urea]"
> 2.5,> 2.5,> 2.5,"CC(C)(C)c1cc(NC(=O)Nc2ccc(-n3cnc4cc(OCCO)ccc43)cc2)[nH]n1 [Compound 79, 1-(5-tert-butyl-2H-pyrazol-3-yl)-3-{4-[5-(2-hydroxy-ethoxyl)-benzimidazol-1-yl]-phenyl]urea]"
> 2.5,> 2.5,> 2.5,"CC(C)(C)c1cc(NC(=O)Nc2ccc(-n3cnc4cc(OCCN5CCOCC5)ccc43)cc2)[nH]n1 [Compound 89, 1-(5-tert-butyl-2H-pyrazol-3-yl)-3-{4-[5-(2-morpholin-4-yl-ethoxyl)-benzimidazol-1-yl]-phenyl}-urea]"
> 2.5,> 2.5,> 2.5,"CC(C)(C)c1cc(N)n(C(=O)Nc2ccc(-n3cnc4ccccc43)cc2)n1 [Compound 116, 5-amino-3-tert-butyl-pyrazol-1-carboxylic acid (4-benzimidazol-1-yl-phenyl)-amide]"

# — patent US10647680B2, “Urea compound, preparation method therefor and medical use thereof” (Ancureall Pharmaceutical (Shanghai) Co., Ltd., priority 2016, dated 2020)
